Values quoted from earlier work, collected in patent publication US20240181106A1, “WATER-SOLUBLE PHOTOSENSITIVE COMPOSITION OF PHOTODYNAMIC ENVIRONMENTAL DISINFECTION AND METHOD OF ENVIRONMENTAL DISINFECTION BY USING THE SAME” (NATIONAL CHENG KUNG UNIVERSITY, priority 2022, published 2024).

- safe single dose (60 kg-weight adult, every 4 hours): 120 mg
- daily dose not to be exceeded (human): ≤ 7 mg/kg daily
- maximum safe dose administered to a human (human): 2 mg/kg/single dose
SMILES: CN(C)c1ccc2nc3ccc(=[N+](C)C)cc-3sc2c1 [methylene blue]
